In general, melting point refers to the temperature of the solid-liquid transition.

As for `CC(Cc1ccc(OCC(=O)O)cc1)NS(=O)(=O)c1ccc(Cl)cc1` (configuration not stated), the melting point fell in the range of 132 to 136 °C.

Compound `O=C1c2ccc(Br)cc2C(=O)N1c1ccc2c(c1)C=C2` came in with a melting point of 167 to 168 °C.

`O=C1CCN(C(=O)c2ccc(Cl)cc2Cl)c2ccc(Cl)cc21` displayed a melting point of 177 to 178 °C. Compound `CCCOc1ccccc1-c1nc2n(C(C)(C)C)[nH]cc-2c(=O)n1` registered a melting point of 130 to 131 °C.

The compound `N#CSc1ccc(N)c(F)c1` registered a melting point of 36 to 38 °C.

With `CCN(CC)C(=O)C(c1ccccc1)n1cnc2[nH]ncc2c1=S` (configuration not stated), the melting point is 143 to 146 °C.

The compound `CCCc1nn(C)c2c(=O)n(CCCNc3ccc(OC(C)(C)C(=O)O)cc3)c(CC)nc12` came in with a melting point of 124 to 126 °C. On to `CCCCC1=C(C=Cc2ccc(N(CCCC)CCCC)cc2OC)CC(C)(C)CC1=CC=CC1=C(C#N)C(=C(C#N)C#N)OC1(c1ccccc1)C(F)(F)F` (configuration not stated), for which the melting point lay in the range of 109 to 113 °C. As for `O=C(COc1ccccc1)Nc1ccccc1C(=O)O`, the melting point was in the range of 201 to 203 °C. Next, `O=C1CCC(=O)N1CCc1ccc(OC(F)(F)F)cc1`: 91 to 93 °C; `N#CC1(Cl)C=C(OCc2ccccc2)C=NC1` (configuration not stated): 114 to 115 °C; `Oc1ccc2c(c1O)Cc1ccccc1-2`: 159 to 162 °C.

The compound `OCC1OC(n2ncc3c(SCC=Cc4ccccc4)ncnc32)C(O)C1O` (configuration not stated) showed a melting point of 165 to 166 °C. Turning to `Cc1cccc(S(=O)(=O)NC(=O)NCCCCCCN)c1`, the melting point was determined as 187 °C.

For `CCCc1cc(-c2noc3cc(O)ccc23)c(CCC)cc1O`, the melting point lay in the range of 162 to 163 °C.

The compound `COC(=O)ON=C1C(=O)c2ccccc2-c2ccccc21` came in with a melting point of 142 to 143 °C. In the case of `COc1cc(Nc2nccc(-c3ccc(CN)cc3)n2)cc(OC)c1OC`, the melting point was 143 to 144 °C. In turn, `NC(=O)N1CC(Oc2ccc(C(F)(F)F)cc2)C1` showed a melting point of 176 to 178 °C. `N#CC(c1ccccc1)c1ccccn1` (racemic) showed a melting point of 89 °C.

With `COc1cc(N)c(Cl)cc1C(=O)NCC1CCN(CCCCNC(=O)c2ccccc2)CC1`, the melting point was in the range of 165 to 168 °C. `CCC(Oc1cncc(Cl)c1)C(=O)O` (configuration not stated) registered a melting point of 98 to 101 °C. With `CCc1ccc(C2CCN(CCCCNC(=O)c3ccc(NC(=O)c4ccc(Cl)cc4)cc3)CC2)c(OC)c1` the figure was 235 °C; with `O=C1C(C(c2cc(F)ccc2F)S(=O)(=O)c2ccc(Cl)cc2)CCCN1CCCO` (configuration not stated), 120 to 121 °C. `COC(=O)NC1CCN(c2nc(N3CCOCC3)c3ncnc(N(C)Cc4ccccc4)c3n2)CC1` showed a melting point of 110 °C.

The compound `COc1ccc(-c2cccc(F)c2)cc1` came in with a melting point of 63 to 64 °C. `CC(C)C1(C)NC(c2ncc(CO)cc2C(=O)O)=NC1=O` (configuration not stated): the melting point was in the range of 170 to 172 °C. As for `CCc1[nH][nH]c(=O)c1Cc1ccc2ccccc2c1`, the melting point lay in the range of 145 to 147 °C. The compound `N#CC1Sc2ccccc2N1C(=O)c1ccc(Cl)cc1` (configuration not stated) returned a melting point of 115 to 117 °C. Regarding `CCCc1c(O)ccc2oc(C(=O)OCC)cc12`, the melting point was in the range of 99 to 101 °C. As to `NC(=O)c1c(OCc2ccccc2)ccc2ccccc12`, the melting point fell in the range of 153 to 154 °C. In the case of `CC1(C)CN(CC(C)(O)c2ccc3c(c2)OCO3)c2nc(-c3ccncn3)cc(=O)n2C1` (configuration not stated), the melting point lay in the range of 194 to 196 °C. As to `CCC1(C)SC(N(C)C(=O)NC)=NN1C(=O)C(C)(C)C` (configuration not stated), the melting point fell in the range of 124 to 127 °C. Regarding `CC(C(=O)N(C)C)n1nc(-c2ccccc2)cc1-c1ccccc1` (configuration not stated), the melting point is 133 to 135 °C. Next, `COc1cccc([C@H]2O[C@H](CC(=O)NCCCC(=O)O)C(=O)N(CC(C)(C)CO)c3ccc(Cl)cc32)c1OC`: 111 to 113 °C; `COC(=O)COc1ccc(S(=O)(=O)c2ccc(O)cc2)cc1`: 159 to 161 °C. Take `O=C(/C=C/c1ccc(C(F)(F)F)cc1-c1cccnc1)Nc1ccc2[nH]ccc2c1`: the melting point fell in the range of 196 to 197 °C. Consider `Cc1cc(Oc2ncc(C(F)(F)F)cc2Cl)nn1C(=S)NCc1ccc(Cl)cc1`, for which the melting point was 119 to 121 °C. Compound `CN(c1cccc(C(=O)O)c1)c1ccc(-c2ccc(C(=N)N)cc2)nn1` had a melting point of over 260 °C. In the case of `O=C(NC(=O)c1c(F)cccc1F)Nc1ccc(S(=O)(=O)C(F)(F)C(F)F)cc1F`, the melting point is 186 to 187 °C. Next, `COC(=O)Cc1ccc(OCC(C)NCC(O)c2cccc(Cl)c2)c(Cl)c1` (configuration not stated): 83 to 103 °C.

On to `COC(=O)c1cncn1C1c2ccccc2C2OC2C1(C)C` (configuration not stated), for which the melting point lay in the range of 60 to 68 °C. As for `Cc1ccc2c(c1)sc1ncc(C(O)CCc3ccccc3)n12` (configuration not stated), the melting point fell in the range of 209 to 210 °C. Next, `Nc1c(Cl)cc(C(O)CNCCCCCCOCCCCc2ccccc2)cc1Cl` (configuration not stated): 74 to 76 °C; `CC(c1ccccc1)n1cncc1C(N)=O` (configuration not stated): 136 to 137 °C. With `CC(C)(C)OC(=O)NC(Cc1ccccc1)C(O)CNCC(O)C(Cc1ccccc1)NC(=O)C(O)(CO)C(C)(C)C` (configuration not stated) the figure was 84 to 86 °C; with `OCCCCc1c[nH]c2ccccc12`, 189 to 190 °C; with `O=C(Nc1ccccc1)Nc1ccc2ccc(-c3cccc(Br)c3)nc2n1`, 285 °C. The compound `O=C(Nc1ccc(Oc2ccnc(NCCN3CCCCC3)n2)c2ccccc12)c1cc(F)cc(N2CCOCC2)c1` had a melting point of 98 to 100 °C. `O=C(O)c1cn(-c2cnsn2)c2nc(N3CCCC3)c(F)cc2c1=O` came in with a melting point of 269 to 273 °C. Next, `COc1ccc(CCNC(=O)/C=C/c2cccs2)cc1S(N)(=O)=O`: 218 to 221 °C. For the compound `N#CC=Cc1ccc(N)cc1`, the melting point is 109 to 110 °C. With `Cc1cc2c(c3c1NC(=O)CC3)O[C@@H](CN)[C@@H]2CO` (racemic) the figure was over 300 °C; with `COc1ccc(-n2cnc3c(O)nc4ccccc4c32)cc1`, over 300 °C.

`CCCNc1nc(=O)c(C)cn1C1CC(N=[N+]=[N-])C(CO)O1` (configuration not stated) yielded a melting point of 146 °C. Regarding `C=CCNc1nc(N(CC=C)CC=C)nc2ccc(Cl)cc12`, the melting point lay within 73 to 74 °C. In turn, `Cc1ccc(-c2nc(O)c(-c3ccccc3)s2)cc1` returned a melting point of 252 to 255 °C. In turn, `N#Cc1c(C(F)(F)F)oc2cc(O)ccc2c1=O` returned a melting point of 255 to 257 °C. In turn, `C#CC1(O)CCC2(C)C(CCC3C2CCC2(C)C(C(C)=O)CCC32)C1` (configuration not stated) displayed a melting point of 196 to 197 °C. For the compound `COc1ccc(SC2CC(=O)N2CC(=O)O)cc1` (configuration not stated), the melting point was in the range of 78 to 79 °C. In turn, `S=C(Nc1ccccc1Cl)N1CCN(c2cnccn2)CC1` yielded a melting point of 167 to 169 °C. As to `N[C@@H](Cc1ccccc1)C(=O)N1CCN(C(c2ccc(F)cc2)c2ccc(F)cc2)CC1`, the melting point was 44 to 51 °C. With `O=C(NCCc1c[nH]c2ccc(F)cc12)OCc1ccccc1` the figure was 104 to 105 °C.

Regarding `CCOC(=O)CC(=O)C=Cc1ccccc1[N+](=O)[O-]`, the melting point is 72 °C.

With `COC(=O)C1(Sc2cc(N3C(=O)C4=CCCCC4C3=O)c(F)cc2Cl)CCC1` (configuration not stated), the melting point was 98 °C. With `FC(F)(F)c1cc(C(F)(F)F)n(-c2ccc(NCc3ccccc3Cl)cc2)n1` the figure was 240 °C; with `COc1ccc(CCC(C)N(Cc2ccccc2)CC(O)c2ccc(OCc3ccccc3)c(N)c2)cc1OC` (configuration not stated), 115 °C. In the case of `CC12CCC3=C(CCc4cc(O)ccc43)C1CCC2=O` (configuration not stated), the melting point was in the range of 225 to 227 °C. With `CCc1nc(-c2ccc(OCCCN3CCN(C)CC3)cc2)no1` the figure was 55 to 56 °C; with `CCOC(=O)c1cc2c(C)c(-c3ccc(Cl)cc3)c(=O)oc2nc1C(=O)OCC`, 179 to 181 °C; with `CCOCCOC(=O)C1=C(C)NC(C(OCC)OCC)=C(C(=O)OCC)C1c1cccc([N+](=O)[O-])c1` (configuration not stated), 99 to 100 °C. Take `Fc1cnc(Nc2cccnc2)nc1Nc1ccc2c(c1)OCCO2`: the melting point lay within 251 to 253 °C.

In turn, `CCOC(=O)C=Cc1ccc(N2CCCC2=O)cc1` yielded a melting point of 134 °C. Next, `O=C1Cc2cccc(Oc3cccc4ccccc34)c2N1`: 158 to 160 °C. As to `CC(O)N1CCC(=C2c3ccccc3C=Cc3ccc(S(=O)(=O)C(F)(F)F)cc32)CC1` (configuration not stated), the melting point lay in the range of 141 to 144 °C.

As for `O=c1cc(-c2ccsc2)c2ccc(O)cc2o1`, the melting point was in the range of 234 to 236 °C. `CS(=O)(=O)c1ccc(-c2cnn(-c3ccc(F)c(Cl)c3)c(=O)c2-c2ccc(Cl)cc2)cc1` yielded a melting point of 205 °C. Compound `O=c1[nH]c2cc(Cl)cc(Cl)c2c(=O)n1Cc1ccccc1` returned a melting point of 260 to 265 °C. The compound `COC(=O)c1cc(-c2ccc(C)cc2)no1` showed a melting point of 106 to 108 °C. With `CCCC=COC1OC(CO)C(O)C(O)C1NC(C)=O` (configuration not stated) the figure was 146 to 148 °C; with `O=C1NC(c2ccccc2)C2=C1N=C1N=CNN1C2` (configuration not stated), 262 to 264 °C.

On to `CCc1ccc2c(c1)NC(=S)C2=O`, for which the melting point was in the range of 213 to 214 °C. `Nc1ccc(NNC=O)cc1` came in with a melting point of 122 to 125 °C. `COCc1c(C(=O)OC(C)C)ncc2[nH]c3cccc(Oc4ccc([N+](=O)[O-])cc4)c3c12` registered a melting point of 217 to 219 °C.

In the case of `CC(C)(C)OC(=O)NCCc1cccc(C(=O)c2cc(Cl)ccc2N)c1`, the melting point lay in the range of 128 to 129 °C. `CCCC1Nc2ccc(S(=O)(=O)N3CCCCC3)cc2S(=O)(=O)N1` (configuration not stated) displayed a melting point of 147 to 151 °C. Next, `CCCCOC(=O)C(NC(=O)OCc1ccccc1)c1cccs1` (configuration not stated): 37 °C; `C=Cc1ccc(CSCCOC(=O)COCC(=O)O)cc1`: 63 to 68 °C. The compound `O=S(=O)(NCc1ccnc2ccccc12)c1ccc(-c2ccc(Cl)cc2)s1` registered a melting point of 185 to 186 °C. As to `CC(=O)CN1C(=O)COc2ccccc21`, the melting point was 74 to 76 °C. With `CC(C)(C)OC(=O)CCC(N)(CCC(=O)OC(C)(C)C)CCC(=O)OC(C)(C)C`, the melting point was 84 to 86 °C. `COC(=O)c1ccc(-n2cccc2C=O)cc1`: the melting point fell in the range of 103 to 105 °C. With `O=C(O)CC1CCc2c(cccc2OC2CCCCO2)C1` (configuration not stated), the melting point is 104 to 109 °C.
